≈ marks a conversion by molar mass, not a printed value.
Key:
[1] = target: recombinant human Estrogen Receptor alpha ligand binding domain (ER alpha-LBD (GST)) (Homo sapiens (Human), UniProt P03372); assay: ERα binding assay (LanthaScreen TR-FRET competition); conditions: TR-FRET, displacement of Fluormone ES2
Method in brief: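 Competition binding to GST-tagged human ERα ligand-binding domain, read by LanthaScreen TR-FRET: Tb-anti-GST antibody labels the receptor and compounds displace a fluorescent tracer, lowering the signal. IC50 was taken from dose-response curve fitting.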

[2] = target: T1, Estrogen Receptor (ERα) in MCF-7 cells (Homo sapiens (Human), UniProt P03372); assay: MCF-7 ER down-regulation assay (immuno-fluorescence); format: cell-based
Method in brief: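 Compounds dispensed acoustically from DMSO stocks onto MCF-7 cells; cells fixed 20 min at room temperature, then automated immunostaining for ERα with overnight incubation at 4° C. Read-out is mean total ER fluorescence intensity normalized to cell number (intensity per cell), with curve fitting for concentration-response values.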

[3] = target: estrogen receptor (ERα) in CAMA-1 cells (Homo sapiens (Human), UniProt P03372); assay: Western blotting assay, ER down-regulation in CAMA-1; format: cell-based; conditions: 100 nM compound, 48 h, normalised to 100 nM fulvestrant
Protocol: (§1) Cells were incubated with compounds (100 nM) or vehicle control (0.1% DMSO) for 48 h at 37° C., 5% CO2 before washing once with PBS and lysing with 80 μl lysis buffer (25 mM Tris/HCl, 3 mM EDTA, 3 mM EGTA, 50 mM NaF, 2 mM sodium orthovanadate, 0.27 M sucrose, 10 mM β-glycerophosphate, 5 mM sodium pyrophosphate, 0.5% TritonX-100, pH 6.8) on ice.
(§2) Samples were boiled for 10 min at 95° C. and then frozen at −20° C. until ready for use.
(§3) The blot was stained with Ponceau S (P7170, Sigma) and cut according to appropriate molecular weight markers.
(§4) Membranes were blocked for 1 hour at room temp in 5% Marvel (w/v) in phosphate-buffered saline containing 0.05% Tween™ 20 (PBS/Tween). Blots were then incubated with anti-ERα (SP1) rabbit monoclonal antibody (Thermofisher) diluted 1:1000 at 4° C. overnight (with gentle shaking) followed by several washes with PBS/Tween. […] All antibodies were made up in 5% Marvel (w/v) in PBS/Tween.
(§5) Down-regulation of the ERα receptor was normalised to the vehicle control (0% down-regulation) and the 100 nM fulvestrant control (100% down-regulation) run within the same gel.

[4] = target: T1, Estrogen Receptor (ERα) in MCF-7 cells; assay: Western blotting assay, ER down-regulation in MCF-7; format: cell-based; conditions: 100 nM compound, 48 h, normalised to 100 nM fulvestrant
Protocol: as §1, §2, §3, §4, §5

[5] = log D (shake flask, 1-octanol/aqueous buffer); format: physicochemical
Method in brief: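 Distribution between 1-octanol and aqueous buffer at pH 7.4 was measured by shake flask, with compounds run in mixtures of ten. Relative concentrations in each phase were quantified by UPLC with quantitative MS. Caffeine served as a low-log D QC sample in all runs.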

[6] = Thermodynamic solubility (shake-flask); format: physicochemical; conditions: aqueous phosphate buffer, 25 °C, pH 7.4, aqueous buffer, thermodynamic from solid, aqueous phosphate buffer pH 7.4, 24 hours
Method in brief: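 Shake-flask method starting from 10 mM DMSO stocks, which are dried before use. Residue equilibrated 24 h at 25° C. in aqueous phosphate buffer, pH 7.4. Dissolved fraction separated and quantified by UPLC/MS/MS, with QC samples in each run.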

[7] = Human plasma protein binding (equilibrium dialysis); format: in vitro ADME; conditions: dialysis 18 hours
Method in brief: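 Fraction unbound (fu %) in human plasma, from LC/MSMS of plasma and buffer sides (7-point plasma calibration) after 18 h rapid equilibrium dialysis. Single determinations, with compounds pooled up to 10 per plasma pool.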

hERG potassium channel = hERG potassium channel (Homo sapiens (Human), UniProt Q12809); assay: hERG binding assay (automated patch clamp, CHO cells); format: cell-based; conditions: CHO cell line, Nanion Syncropatch 384PE
Protocol: Reagent preparations include: • 1.
Cell preparations: • 1. If using cell culture; cells to be incubated at 30° C. for approximately 4-6 days prior to being used. Day of assay lift cells using accutase and re-suspend in 20 ml cell buffer to a density of 0.8 to 1e6 cells/ml. • 2. If using assay ready cryovials; rapidly thaw two cryovials at 37° C. and slowly pipette into 23 ml external solution • 3.
All compounds were acoustically dispensed in quadruplicate using a Labcyte Echo. […] Fill 384 well medium resistance 4 hole chips with 40 μl external buffer and perfuse internal buffer to the underside of plate. • 2. Dispense 20 μl of cells into each well of the chip followed by 20 μl of seal enhancer. • 3. Remove 40 μl of reagent from each well to the wash station, leaving a residual volume of 40 μl • 4. Dispense 40 μl of reference buffer with a removal step of 40 μl after 3 min, repeat this step. • 5.
hERG-mediated currents were elicited using a voltage step protocol consisting of acontinuous holding voltage of −80 mV, with a 500 ms step to 60 mV followed by a 500 ms step to −40 mV every 15 seconds. hERG current magnitude was measured automatically from the leak-subtracted traces by the Nanion software by taking the peak of the hERG “tail” current at −40 mV every 15 seconds and taking the last three of these responses for each concentration to generate the concentration-effect curve.
Calculation of results is performed using APC package within Genedata. For the routine normalization of well data with Neutral and Inhibitor control well groups as reference, GeneData Assay Analyzer uses the following equation to normalize the signal values to the desired signal range:
[formula] • x is the measured raw signal value of a well • is the median of the measured signal values for the Central Reference (Neutral) wells on a plate • is the median of the measured signal values for the Scale Reference (Inhibitor) wells on a plate • CR is the desired median normalized value for the Central Reference (Neutral) • SR is the desired median normalized value for the Scale Reference (Inhibitor)

[8] = 1-octanol/aqueous buffer, pH 7.4, pH 7.4, 1-octanol/aqueous buffer

Sequence of hERG potassium channel (Q12809 whole entry): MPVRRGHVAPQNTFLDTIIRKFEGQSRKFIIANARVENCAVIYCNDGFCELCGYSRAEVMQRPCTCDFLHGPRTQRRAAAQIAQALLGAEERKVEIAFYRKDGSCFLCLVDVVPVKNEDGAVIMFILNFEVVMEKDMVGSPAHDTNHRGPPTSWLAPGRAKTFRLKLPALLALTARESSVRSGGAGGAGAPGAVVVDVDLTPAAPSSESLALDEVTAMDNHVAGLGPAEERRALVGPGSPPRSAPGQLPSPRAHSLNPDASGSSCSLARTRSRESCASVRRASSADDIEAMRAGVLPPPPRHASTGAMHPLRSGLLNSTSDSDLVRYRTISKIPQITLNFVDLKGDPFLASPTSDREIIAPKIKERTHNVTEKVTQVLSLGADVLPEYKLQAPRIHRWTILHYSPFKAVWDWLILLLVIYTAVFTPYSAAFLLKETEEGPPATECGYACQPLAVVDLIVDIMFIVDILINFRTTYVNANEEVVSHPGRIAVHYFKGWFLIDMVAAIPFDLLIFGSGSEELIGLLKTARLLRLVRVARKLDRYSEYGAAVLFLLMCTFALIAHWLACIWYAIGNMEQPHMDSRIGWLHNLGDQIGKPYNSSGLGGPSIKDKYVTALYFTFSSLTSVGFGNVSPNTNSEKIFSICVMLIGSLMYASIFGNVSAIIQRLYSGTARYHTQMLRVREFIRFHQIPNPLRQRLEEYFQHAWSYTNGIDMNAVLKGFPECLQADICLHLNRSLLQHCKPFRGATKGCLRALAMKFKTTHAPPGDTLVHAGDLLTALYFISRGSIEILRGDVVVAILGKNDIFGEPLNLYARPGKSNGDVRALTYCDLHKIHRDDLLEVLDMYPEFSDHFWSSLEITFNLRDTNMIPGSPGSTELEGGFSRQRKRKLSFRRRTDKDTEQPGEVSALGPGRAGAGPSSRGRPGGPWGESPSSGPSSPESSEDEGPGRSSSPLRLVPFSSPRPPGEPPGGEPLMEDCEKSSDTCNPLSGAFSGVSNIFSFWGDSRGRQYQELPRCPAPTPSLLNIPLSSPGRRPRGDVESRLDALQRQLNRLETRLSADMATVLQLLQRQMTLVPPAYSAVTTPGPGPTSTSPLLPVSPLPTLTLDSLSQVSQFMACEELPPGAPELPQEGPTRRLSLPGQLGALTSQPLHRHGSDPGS
Sequence of recombinant human Estrogen Receptor alpha ligand binding domain (ER alpha-LBD (GST)) (P03372 307-554): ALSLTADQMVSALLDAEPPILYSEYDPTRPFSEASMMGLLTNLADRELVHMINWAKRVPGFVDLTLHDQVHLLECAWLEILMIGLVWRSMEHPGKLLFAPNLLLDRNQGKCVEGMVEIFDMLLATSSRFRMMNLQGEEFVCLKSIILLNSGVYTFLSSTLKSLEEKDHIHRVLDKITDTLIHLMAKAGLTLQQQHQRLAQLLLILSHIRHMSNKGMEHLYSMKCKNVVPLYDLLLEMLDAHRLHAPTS
T1 sequence (P03372 whole entry): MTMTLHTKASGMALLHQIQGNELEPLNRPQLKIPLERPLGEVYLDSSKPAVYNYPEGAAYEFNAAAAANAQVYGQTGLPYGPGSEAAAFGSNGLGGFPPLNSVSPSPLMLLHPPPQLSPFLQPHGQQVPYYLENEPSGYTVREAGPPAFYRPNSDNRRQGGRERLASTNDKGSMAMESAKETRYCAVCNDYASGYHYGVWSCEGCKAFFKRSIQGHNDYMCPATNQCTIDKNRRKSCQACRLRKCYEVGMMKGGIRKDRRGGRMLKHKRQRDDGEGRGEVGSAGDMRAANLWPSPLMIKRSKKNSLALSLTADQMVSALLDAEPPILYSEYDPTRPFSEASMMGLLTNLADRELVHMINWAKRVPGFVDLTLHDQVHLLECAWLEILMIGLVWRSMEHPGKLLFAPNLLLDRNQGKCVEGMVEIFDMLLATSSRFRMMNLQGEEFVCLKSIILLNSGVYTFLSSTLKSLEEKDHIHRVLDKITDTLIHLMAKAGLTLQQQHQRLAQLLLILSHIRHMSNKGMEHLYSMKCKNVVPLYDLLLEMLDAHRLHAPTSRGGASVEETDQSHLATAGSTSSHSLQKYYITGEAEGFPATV
Sequence of estrogen receptor (ERα) in CAMA-1 cells (P03372 whole entry): as above

In the case of `C[C@@H]1Cc2c(ccc3[nH]ncc23)[C@@H](c2ncc(NC3CN(CCCF)C3)cc2F)N1CC(F)F` [Example 46, 6-((6S,8R)-7-(2,2-difluoroethyl)-8-methyl-6,7,8,9-tetrahydro-3H-pyrazolo[4,3-f]isoquinolin-6-yl)-5-fluoro-N-(1-(3-fluoropropyl)azetidin-3-yl)pyridin-3-amine], the IC50 [1] is reported as 3.6 nM, the IC50 [2] is reported as 0.4 nM and the “CAMA1 Western % ER deg vs Fv” value [3] is reported as 102%. The “MCF7 Western % ER deg vs Fv” value [4] was 105%, the logD [5, 8] was 2.5 and the solubility at 24 h [6] was > 1000 µM. For the same compound, the “Human plasma protein binding (% free)” value [7] was 31 % free and the IC50 (hERG potassium channel) was > 40000 nM.

In the case of `COc1cc(NC2CN(CCCF)C2)ncc1[C@@H]1c2ccc3[nH]ncc3c2C[C@@H](C)N1CC1(F)CC1` [Example 9, 5-((6S,8R)-7-((1-fluorocyclopropyl)methyl)-8-methyl-6,7,8,9-tetrahydro-3H-pyrazolo[4,3-f]isoquinolin-6-yl)-N-(1-(3-fluoropropyl)azetidin-3-yl)-4-methoxypyridin-2-amine], the IC50 [1] is reported as 360 nM, the IC50 [2] is reported as > 300 nM and the “CAMA1 Western % ER deg vs Fv” value [3] is reported as 25%. For the same compound, the “MCF7 Western % ER deg vs Fv” value [4] was −13%, the logD [5, 8] was 1 and the solubility at 24 h [6] was > 1000 µM. The “Human plasma protein binding (% free)” value [7] was 21 % free.

With `C[C@@H]1Cc2c(ccc3[nH]ncc23)[C@@H](c2c(F)cc(NC3CN(CCCF)C3)cc2F)N1CC(F)(F)F` [Example 8, N-(3,5-difluoro-4-((6S,8R)-8-methyl-7-(2,2,2-trifluoroethyl)-6,7,8,9-tetrahydro-3H-pyrazolo[4,3-f]isoquinolin-6-yl)phenyl)-1-(3-fluoropropyl)azetidin-3-amine] the IC50 [1] was 2 nM, the IC50 [2] was 0.055 nM and the “CAMA1 Western % ER deg vs Fv” value [3] was 100%. For the same compound, the “MCF7 Western % ER deg vs Fv” value [4] was 101%, the logD [5, 8] was 4.4 and the solubility at 24 h [6] was 90 µM (≈ 46 µg/mL). For the same compound, the “Human plasma protein binding (% free)” value [7] was 0.99 % free.

With `COc1cc(NC2CN(CCCF)C2)c(F)cc1[C@@H]1c2ccc3[nH]ncc3c2C[C@@H](C)N1CC1(F)CC1` [Example 53, N-(2-fluoro-4-((6S,8R)-7-((1-fluorocyclopropyl)methyl)-8-methyl-6,7,8,9-tetrahydro-3H-pyrazolo[4,3-f]isoquinolin-6-yl)-5-methoxyphenyl)-1-(3-fluoropropyl)azetidin-3-amine] the IC50 [1] was 5.7 nM, the IC50 [2] was 0.26 nM and the “CAMA1 Western % ER deg vs Fv” value [3] was 46%. The “MCF7 Western % ER deg vs Fv” value [4] was 81%, the logD [5, 8] was 3.2 and the solubility at 24 h [6] was 691 µM (≈ 355 µg/mL). For the same compound, the “Human plasma protein binding (% free)” value [7] was 11 % free.

For `C[C@@H]1Cc2c(ccc3[nH]ncc23)[C@@H](c2ccc(OC3CN(CCCF)C3)cn2)N1CC(F)F` [Example 26, (6S,8R)-7-(2,2-difluoroethyl)-6-(5-((1-(3-fluoropropyl)azetidin-3-yl)oxy)pyridin-2-yl)-8-methyl-6,7,8,9-tetrahydro-3H-pyrazolo[4,3-f]isoquinoline], the IC50 [1] was 6.7 nM, the IC50 [2] was 0.52 nM and the “CAMA1 Western % ER deg vs Fv” value [3] was 97%. For the same compound, the “MCF7 Western % ER deg vs Fv” value [4] was 97%, the logD [5, 8] was 3 and the solubility at 24 h [6] was 258 µM (≈ 119 µg/mL). The “Human plasma protein binding (% free)” value [7] was 22 % free.

For `C[C@@H]1Cc2c(ccc3[nH]ncc23)[C@@H](c2c(F)cc(NC3CN(CCCF)C3)cc2F)N1CC(F)F` [Example 49, N-(4-((6S,8R)-7-(2,2-difluoroethyl)-8-methyl-6,7,8,9-tetrahydro-3H-pyrazolo[4,3-f]isoquinolin-6-yl)-3,5-difluorophenyl)-1-(3-fluoropropyl)azetidin-3-amine], the IC50 [1] was 1.5 nM, the IC50 [2] was 0.075 nM and the “CAMA1 Western % ER deg vs Fv” value [3] was 99%. For the same compound, the “MCF7 Western % ER deg vs Fv” value [4] was 98%, the logD [5, 8] was 3.8 and the solubility at 24 h [6] was 163 µM (≈ 80.4 µg/mL). It also gave an IC50 (hERG potassium channel) of 8200 nM.

In the case of `C[C@@H]1Cc2c(ccc3[nH]ncc23)[C@@H](c2ccc(NC3CN(CCCF)C3)nc2F)N1CC(F)(F)F` [Example 40, 6-fluoro-N-(1-(3-fluoropropyl)azetidin-3-yl)-5-((6S,8R)-8-methyl-7-(2,2,2-trifluoroethyl)-6,7,8,9-tetrahydro-3H-pyrazolo[4,3-f]isoquinolin-6-yl)pyridin-2-amine], the IC50 [1] is reported as 1.3 nM, the IC50 [2] is reported as 0.1 nM and the “CAMA1 Western % ER deg vs Fv” value [3] is reported as 120%. The “MCF7 Western % ER deg vs Fv” value [4] was 98%, the logD [5, 8] was 3.5 and the solubility at 24 h [6] was 479 µM (≈ 237 µg/mL). For the same compound, the “Human plasma protein binding (% free)” value [7] was 6.4 % free and the IC50 (hERG potassium channel) was 4500 nM.

With `C[C@@H]1Cc2c(ccc3[nH]ncc23)[C@@H](c2cnc(NC3CN(CCCF)C3)cn2)N1CC(F)(F)F` [Example 42, N-(1-(3-fluoropropyl)azetidin-3-yl)-5-((6S,8R)-8-methyl-7-(2,2,2-trifluoroethyl)-6,7,8,9-tetrahydro-3H-pyrazolo[4,3-f]isoquinolin-6-yl)pyrazin-2-amine] the IC50 [1] was 3.8 nM, the IC50 [2] was 0.28 nM and the “CAMA1 Western % ER deg vs Fv” value [3] was 79%. For the same compound, the “MCF7 Western % ER deg vs Fv” value [4] was 92%, the logD [5, 8] was 2.4 and the solubility at 24 h [6] was 712 µM (≈ 340 µg/mL). For the same compound, the IC50 (hERG potassium channel) was 7900 nM.

In the case of `CC(C)CN1[C@H](c2ccc(NC3CN(CCCF)C3)cn2)c2ccc3[nH]ncc3c2C[C@H]1C` [Example 69, N-(1-(3-fluoropropyl)azetidin-3-yl)-6-((6S,8R)-7-isobutyl-8-methyl-6,7,8,9-tetrahydro-3H-pyrazolo[4,3-f]isoquinolin-6-yl)pyridin-3-amine], the IC50 [1] is reported as 8.9 nM, the IC50 [2] is reported as 0.55 nM and the “CAMA1 Western % ER deg vs Fv” value [3] is reported as 98%. For the same compound, the “MCF7 Western % ER deg vs Fv” value [4] was 95%, the logD [5, 8] was 2.9 and the solubility at 24 h [6] was > 1000 µM. The “Human plasma protein binding (% free)” value [7] was 37 % free and the IC50 (hERG potassium channel) was 24000 nM.

In the case of `COc1cc(NC2CN(CCC(F)(F)F)C2)ccc1[C@@H]1c2ccc3[nH]ncc3c2C[C@@H](C)N1CC1(F)CC1` [Example 56, N-(4-((6S,8R)-7-((1-fluorocyclopropyl)methyl)-8-methyl-6,7,8,9-tetrahydro-3H-pyrazolo[4,3-f]isoquinolin-6-yl)-3-methoxyphenyl)-1-(3,3,3-trifluoropropyl)azetidin-3-amine], the IC50 [1] is reported as 8.2 nM, the IC50 [2] is reported as 0.58 nM and the “CAMA1 Western % ER deg vs Fv” value [3] is reported as 52%. For the same compound, the “MCF7 Western % ER deg vs Fv” value [4] was 61%, the logD [5, 8] was 3.6 and the solubility at 24 h [6] was 377 µM (≈ 200 µg/mL).

With `COc1cc(OC2CN(CCCF)C2)ccc1[C@@H]1c2ccc3[nH]ncc3c2C[C@@H](C)N1CC1(F)CC1` [Example 7, (6S,8R)-7-((1-fluorocyclopropyl)methyl)-6-(4-((1-(3-fluoropropyl)azetidin-3-yl)oxy)-2-methoxyphenyl)-8-methyl-6,7,8,9-tetrahydro-3H-pyrazolo[4,3-f]isoquinoline] the IC50 [1] was 8.4 nM, the IC50 [2] was 0.4 nM and the “CAMA1 Western % ER deg vs Fv” value [3] was 90%. The “MCF7 Western % ER deg vs Fv” value [4] was 90%, the logD ([5]; pH 7.4, 1-octanol/aqueous buffer) was 3.5 and the solubility at 24 h [6] was 470 µM (≈ 233 µg/mL). The “Human plasma protein binding (% free)” value [7] was 11 % free.
